One experiment concerns human islet cells. The experiment in a line: Caspase-Glo 3/7 assay in palmitic acid-treated human islets. Type of experiment: cell-based. More on the design: rescuing human islet cells from apoptosis, compared with L-798106 / inhibiting or reversing palmitate-induced apoptosis in pancreatic islets of both human donors / inhibition of palmitate-induced apoptosis in human islets, donor 1: dose or concentration left out as unconfirmed. The note with it: palmitic acid, 48 h; for rescuing human islet cells from apoptosis, compared with L-798106: two human donors. On the procedure: (§1) Islet and cell culture: The pancreatic β-cell line MIN6, which is a clonal murine insulin-secreting line, was cultured in DMEM (Biological Industries, Beit Haemek, Israel) supplemented with 11 mM Glucose, 2 mM glutamine, 15% heat-inactivated fetal calf serum (FCS), 100 U/ml penicillin, 100 µg/ml streptomycin and 61 μM β-mercaptoethanol. Human islets were obtained from the European Consortium for Islet Transplantation (ECIT) at the San Raffaele Hospital and from the Niguarda Hospital, (Milan, Italy) and cultured in CMRL-1066 media (Biological Industries, Beit HaEmek, Israel) supplemented with 10% FCS, 5.5 mM glucose, 2 mM L-Glutamine, 100 U/ml penicillin, 100 μg/ml streptomycin and 150 μg/ml gentamycin. Palmitate was added to 1% FCS and 0.5% defatted BSA (Roche, Germany).
Next, the ability of the compounds to rescue human islet cells from palmitate-induced apoptosis was determined. To this end, the Caspase-Glo 3/7 assay reagent (Promega) was used for caspase 3/7 detection in palmitic acid-treated cells. The reagent provides a proluminescent caspase-3/7 substrate, which contains the tetrapeptide sequence DEVD, in combination with luciferase and a cell-lysing agent. The addition of the reagent directly to the wells results in cell lysis, followed by caspase cleavage of the DEVD substrate, and the generation of luminescence.
Accordingly, human islets from two donors were exposed to the various compounds or to L-798106 for 48 h in the presence of palmitic acid, and the bioluminescence was measured as compared to control cells. FIGS. 3A-3B show the results of the treatment with […] of the compounds in two human donors (FIG. 3A—donor 1, FIG. 3B—donor 2). PA: Palmitate; L: L-798106; RLU: Relative Light Units. The results are average of triplicates or quadruplicates ±SEM (except in islets from L-798106 treated donor 2, representing duplicates).
Next, various concentrations of the compounds were tested in human pancreatic islet cells. Cells obtained from the first healthy donor (donor 1) were incubated in the presence or absence of PA with C13, C5 or L-798106 (L) at concentrations of 5, 2.5 and 0.5 μM. Caspase 3/7 enzymatic activity was measured as described above. The enzymatic activity is presented in FIG. 5A for 5 μM, FIG. 5B for 2.5 μM and FIG. 5C for 0.5 μM as relative light units (RLU/μg protein) and the graphs represent the average of n=3-4.

The test system of experiment [1] is db/db mice. The experiment in a line: random blood glucose levels in db/db and control mice. As to conditions: for average random blood glucose levels in db/db mice: 8 weeks gavage, compared to the vehicle; for random blood glucose levels at 8 weeks: compared with L-798106 treated mice. Type of experiment: in vivo. How it is done:
The effects of the compounds were tested in an in vivo model of diabetes. To this end, C57BLKS/J mice with the leptin receptor mutation (BKS-db; BKS.Cg-Dock7m+/+Leprdb/J), known as an animal model characteristic of human T2DM, were used, when both male and female homozygotes to Leprb mutation (db/db) develop spontaneous T2DM with phenotypes that include: (I) severe obesity, (II) progressive and sustained hyperglycemia, when the course of the disease is markedly influenced by genetic background BLKS (in contrast to regular C57BL/6J background mice with the same mutation (B6-db), (III) glucose intolerance resulting in elevated serum cholesterol, glucose, and triglycerides, and (VI) elevations of plasma blood sugar resulting in severe depletion of the insulin-producing β-cells of the pancreatic islets, and eventually death.
Two sets of experiments with two colonies of homozygote mice were performed with the C5 and C13 compounds (n=5 for each experiment), compared to L-798106. The compounds were administered to 7-8-week-old mice by oral gavage (2.5 mg/kg/day) for eight weeks. Control group (n=10-15) received vehicle (DMSO in PBS). Blood glucose was randomly tested throughout the experiment.
To test the effect of the compounds C15, C17 and C20 on random blood glucose levels, control and db/db mice underwent essentially the same treatment course and measurements as described in Example 9.

Experiment [2] has as its system db/db mice. The experiment in a line: intraperitoneal glucose tolerance test (IPGTT). As to conditions: 8 weeks oral 2.5 mg/kg/day; glucose 1 g/kg; all time points; vs vehicle. Type of experiment: in vivo. How it is done: Lepr^db/db homozygotes (db/db) and heterozygote Lepr^db/+ (wild type) mice were treated daily with 2.5 mg/kg/day oral administration of the Vehicle, the commercial EP3 antagonist L-798106 and the compounds C5 and C13 for 8 weeks, as described in Example 9. A glucose tolerance test (Intraperitoneal glucose tolerance test, IPGTT) was performed following four weeks and eight weeks of the onset of treatment, as follows. Glucose (1 g/kg) was injected following 8 hours of fasting, and blood glucose was measured at baseline and at 30-, 60-, 90- and 120-minutes post glucose administration.
Heterozygote (wild type) and diabetic db/db mice were treated daily with the Vehicle, L-798106 and the compounds C17 and C20 for 8 weeks, essentially as described in Example 9. A glucose tolerance test (IPGTT) was performed essentially as described in Example 10.

Experiment [3] in a line: blood insulin concentrations by serum C-peptide ELISA. Type of experiment: in vivo. As to conditions: 8 weeks oral treatment; vs vehicle-treated diabetic mice. On the procedure: At the end of the 8 week-long period of treatment as described in Example 9, mice were sacrificed and blood samples were collected, and analyzed for different parameters as detailed below.
Blood insulin concentrations.
Blood insulin concentrations. Following 8 weeks of treatment, blood samples were collected and the levels of insulin in the collected sera were assessed essentially as described in Example 12. The results are presented in FIG. 28, in which the different test groups as presented in FIG. 28 are represented as described in Example 14 and “ns” indicates non-significant differences. The numbers of tested mice are as follows: vehicle (n=10), L-798106 (n=10), C17 (n=5), C20 (n=5).
(In general: ELISA stands for enzyme-linked immunosorbent assay.)

The test system of a further experiment is MIN6 cells. The experiment in a line: rescue of MIN6 cells from palmitate-induced apoptosis (cleaved caspase 3 western blot; FACS SubG1). Type of experiment: cell-based, murine. The note with it: palmitic acid 0.3 mM, 48 hours; compared to L-798106. How it is done:
as §1
Western blotting: Cells were lyzed in Laemmli protein sample buffer, separated on SDS-polyacrylamide gel, and transferred to […] nitrocellulose membranes (Schleicher and Schuell, Dassel, Germany). After blocking in 5% dried skimmed milk, the membranes were first incubated with the appropriate antibodies against: cleaved caspase-3 (Asp175) (Cell Signaling Technology Danvers, MA) and α-tubulin (Sigma-Aldrich.) and then with horseradish peroxidase conjugated anti-rabbit or anti-mouse IgG, followed by analysis with an enhanced chemiluminescence detection kit (Biological Industries, Israel).
The remaining compounds were screened for the ability to rescue β-cells from palmitate-induced apoptosis as compared to the commercial EP3 antagonist L-798106 by measuring the levels of the cleaved caspase 3 apoptotic marker, using Western Blot analysis (FIG. 1). […] Cell extracts were analyzed by western blotting for the presence of cleaved caspase 3 as compared to α-Tubulin.
The ability of the compounds to rescue β-cells from apoptosis was also evaluated using FACS analysis and measuring the SubG1 population (FIG. 2). […] Collected cells were analyzed by FACS and the SubG1 fractions (representing apoptotic cell products or components were compared. The average of 4-6 independent experiments is presented in FIG. 2.
On the technique in general: A western blot detects proteins with antibodies after separation by electrophoresis.

Experiment [4] concerns db/db mice. The experiment in a line: Insulin Tolerance Test (ITT). Type of experiment: in vivo. As to conditions: 8 weeks oral treatment; 0.75 U/kg insulin; all time points; vs vehicle. On the procedure:
An Insulin Tolerance Test (ITT) was conducted to determine the effect of the test compounds on insulin resistance, following oral administration of Vehicle or the tested compounds as described in Example 9. To this end, the different treated groups were further subjected to a subsequent 5-hour fast and then injected with 0.75 U/kg insulin. Blood glucose was measured at the time of insulin injection (baseline level) and at the indicated time intervals thereafter. Blood glucose levels and AUC of the wild-type mice are presented in FIGS. 19A-19B respectively, and blood glucose levels and AUC of the db/db mice are presented in FIGS. 19C-19D respectively. The different test groups as presented in FIGS. 19A-19D are represented as described in Example 9.
To determine the effect of the C17 and C20 compounds on insulin resistance, an ITT was conducted essentially as described in Example 11. Blood glucose levels and AUC of the wild-type mice are presented in FIGS. 27A-27B respectively (n=5-15), and blood glucose levels and AUC of the db/db mice are presented in FIGS. 27C-27D respectively (n=5-10). The different test groups as presented in FIGS. 27A-27D are represented as described in Example 14.

The next experiment relates to pancreatic β-cell. The note with it: chow and high-fat diet islets; cited from earlier work.

As for `Cc1n[nH]c(C)c1S(=O)(=O)Nc1ccccc1C(=O)N[C@@H](C)c1ccccc1` [Compound C4, (S)-2-((3,5-dimethyl-1H-pyrazole)-4-sulfonamido)-N-(1-phenylethyl)benzamide], the “inhibition of palmitate-induced apoptosis in human islets, donor 1” value in the experiment on human islet cells is “moderate inhibitory activity comparable to that of L-798106”.
As for `Cc1nn(C)c(C)c1C[C@@H](C)NC(=O)c1ccc(S(=O)(=O)Nc2ccccc2F)cc1` [Compound C9, (R)-4-(N-(2-fluorophenyl)sulfamoyl)-N-(1-(1,3,5-trimethyl-1H-pyrazol-4-yl)propan-2-yl)benzamide], the “inhibition of palmitate-induced apoptosis in human islets, donor 1” value with human islet cells is on record as “marked inhibitory activity”.
As to `CCn1nc(C)c(S(=O)(=O)Nc2ccc(Cl)cc2C(=O)c2ccc[nH]2)c1C` [Compound C10, N-(4-chloro-2-(1H-pyrrole-2-carbonyl)phenyl)-1-ethyl-3,5-dimethyl-1H-pyrazole-4-sulfonamide], in the experiment on human islet cells, the “inhibiting or reversing palmitate-induced apoptosis in pancreatic islets of both human donors” value is recorded as “failed to inhibit”.
On to `COc1ccc([C@@H](CC(=O)O)NC(=O)c2cn(Cc3cccc(F)c3)nn2)cc1OC` [Compound C12, (R)-3-(3,4-dimethoxyphenyl)-3-(1-(3-fluorobenzyl)-1H-1,2,3-triazole-4-carboxamido)propanoic acid], for which the “rescuing human islet cells from apoptosis, compared with L-798106” value with human islet cells is recorded as “to a greater extent than the EP3 antagonist L-798106”.
With `COc1cc(/C=C(\CCC(=O)O)c2nc3ccccc3s2)ccc1OCc1ccccc1` [Compound C15, (E)-4-(benzo[d]thiazol-2-yl)-5-(4-(benzyloxy)-3-methoxyphenyl)pent-4-enoic acid], the “average random blood glucose levels in db/db mice” value with db/db mice [1] is “effective in lowering average blood glucose levels”. Further, the “rescuing human islet cells from apoptosis, compared with L-798106” value in the experiment with human islet cells is given as “to a greater extent than the EP3 antagonist L-798106”.
`COc1cc(/C=C(/CC(=O)O)c2nc3ccccc3s2)ccc1OCc1cccc(C(F)(F)F)c1` [Compound C17, (Z)-3-(benzo[d]thiazol-2-yl)-4-(3-methoxy-4-((3-(trifluoromethyl)benzyl)oxy)phenyl)but-3-enoic acid]: the “hyperglycemia in IPGTT, db/db mice” value in the experiment on db/db mice [2] was “significantly alleviated hyperglycaemia”. Moreover, in the experiment with db/db mice [1], the “average random blood glucose levels in db/db mice” value is reported as “effective in lowering average blood glucose levels” and the “random blood glucose levels at 8 weeks” value is reported as “the same blood glucose levels as the L-798106 treated mice”. In experiment [3], the “blood insulin levels (serum C-peptide) in diabetic mice” value was “the differences did not reach statistical significance”. In addition, in the experiment on human islet cells, the “rescuing human islet cells from apoptosis, compared with L-798106” value was “to a greater extent than the EP3 antagonist L-798106”. In addition, in the experiment on MIN6 cells, the “rescue of β-cells from palmitate-induced apoptosis (cleaved caspase 3; SubG1 population)” value is “exceptionally high efficacy”. In addition, in the experiment with db/db mice [4], the “glucose levels after insulin injection (insulin sensitivity), db/db mice” value is listed as “Improve Insulin Sensitivity”.
On to `COc1cc(/C=C(\CCC(=O)O)c2nc3ccccc3s2)ccc1OCc1ccc(F)cc1` [Compound C20, (E)-4-(benzo[d]thiazol-2-yl)-5-(4-((4-fluorobenzyl)oxy)-3-methoxyphenyl)pent-4-enoic acid], for which the “hyperglycemia in IPGTT, db/db mice” value in the experiment on db/db mice [2] was “significantly alleviated hyperglycaemia”. In the experiment on db/db mice [1], the “average random blood glucose levels in db/db mice” value is “effective in lowering average blood glucose levels” and the “random blood glucose levels at 8 weeks” value is recorded as “the same blood glucose levels as the L-798106 treated mice”. For the same compound, in experiment [3], the “blood insulin levels (serum C-peptide) in diabetic mice” value is “the differences did not reach statistical significance”. In addition, the “rescuing human islet cells from apoptosis, compared with L-798106” value in the experiment on human islet cells is “to a greater extent than the EP3 antagonist L-798106”. Moreover, the “glucose levels after insulin injection (insulin sensitivity), db/db mice” value with db/db mice [4] is given as “Improve Insulin Sensitivity”.
With `C=C1C(=O)OC(CCCCCCCC)C1C(=O)O` (stereo not drawn) [Compound C75], in the experiment with pancreatic β-cell, the glucose-induced insulin secretion entry is on record as “markedly reduced” and the “β cell electrical activity” value was “markedly reduced”.

These data come from patent US20240261296A1, “THERAPEUTIC MODALITIES FOR INHIBITING PANCREATIC BETA CELL IMPAIRMENT AND TREATING DIABETES” (Hadasit Medical Research Serices & Development Ltd., priority 2021, published 2024).
